# Source: patent publication US20020169296A1, “Linked, sequence-specific DNA-binding molecules” (priority 2000, published 2002)
# Several values for one entry are separate records, joined by “and”; a condition that tells them apart may be missing. Equal entries are not always repeated. Where two headings read alike, the source gives them in different places.
# Tests used:
# [1] = test system: sperm nuclei (condensation to chromatids); test: Chromosome condensation of sperm nuclei in mitotic Xenopus egg extracts; type: biochemical
# From the text: Mitotic Xenopus egg extracts convert added nuclei and sperm to chromatids in vitro. This chromosome condensation process requires topoisomerase II (Adachi et al., 1991), the protein complex condensin (Hirano T, 1997) and presumably other unidentified activities present in the mitotic extract. First, chromatin is remodeled and nuclei then proceed quite synchronously through a number of morphologically distinguishable steps (Hirano and Mitchison, 1991). Remodeling is morphological manifested by swelling of the nuclei which involves exchange of basic sperm-specific proteins for H2A/H2B and the incorporation of histone B4 (Dimitrov S, 1994).
# Pyrrole drugs were added to the extract together with the sperm or after the remodeling step (at 10 minutes) and the extent of condensation was determined after 120 min. At this time point, the conversion of all sperm nuclei to clusters of individual chromatids is complete in the absence of drug (FIG. 8A, control). […] Addition of this compound at 125 to 250 nM (indicated) arrested this process at the so-called early ‘ruffle’ stage (FIG. 8A). These structures retain the swollen sperm shape, but they have peripheral blebs (ruffles) and a slightly heterogeneous interior. At this drug concentration, no chromatids are seen. If the concentration of Lex10 is raised to 500 nM, we observed an even earlier arrest as evidenced by the accumulation of swollen, remodeled sperm-shaped nuclei containing a homogeneous interior and smooth periphery. […] The monomer P7 was also tested but we observed no inhibition with the pyrrole pentamer up to the highest concentration (8 μM) tested. Condensation was inhibited at a ruffle stage with a P9 concentration of 2 μM (not shown).
# In the experiment shown in FIG. 8B, Lex10 was added to the extract at a final concentration of 1 μM (several fold above the minimum inhibitory concentration) after which competitor oligonucleotides were added at different stages. Three different oligonucleotides of similar size were used: the SAR oligo contains two large clustered AT-tracts of the SAR probe (W17N5W15), the W9 oligo has a single AT tract of 9 base pairs and the GAGAA oligo harbors 5 tandem GAGAA repeats.
# Topoisomerase II inhibition and chromosome assembly were as described previously (Girard et al., 1998, Strick and Laemmli, 1995). Affinity cleavage experiments was performed as described elsewhere (Turner et al., 1997).
# [2] = test system: Drosophila histone SAR probe (clustered/long AT-tracts); test: DNase I footprinting on SAR probe; type: binding
# Procedure: Since satellite I is composed of exclusively A and T bases, it constitutes an ‘ideal’ binding substrate for oligopyrroles. But to obtain SAR-specific compounds, molecules are required that preferably bind its clustered, irregularly spaced AT-tracts. Binding studies were carried out with P9, P7 and P13 on the Drosophila histone SAR probe which contains the following clustered/long AT-tracts (W15N3W17N5W16N13W8NW6 where N is any base, see also FIG. 3D). […] The ratio of these two affinities is used (KappW9/KappSAR) as an empirical measure of SAR specificity. For all compounds tested thus far, this value (referred to as SAR preference factor) was around unity (Table 3).
# (§1) Fragments were purified on low-melt agarose gels and then cloned into a modified pSP64 vector, cut by BamHI and BglII. End-labeling was carried out following digestion with HindIII and a fill-in reaction with Klenow DNA polymerase. The labeled plasmid was cut with PvuII and the target fragments purified from low-melting agarose gels. The 657 bp EcoRl/Hinf1 fragment of the Drosophila histone SAR was cloned into the SmaI site of the modified pSP64 plasmid. This SAR probe was end-labeled following digestion with EcoRl, then cut with ClaI and the resulting 347 bp fragment purified from low-melting agarose gels.
# (§2) All reactions were performed in a total volume of 40 μl. A polyamide stock solution or buffer (for reference lanes) was added to an assay buffer containing 20 kcpm radiolabeled DNA, affording final concentrations of 10 mM Tris-HCl (pH 7.4), 10 mM KCl, 10 mM MgCl, 5 mM CaCl2, 0.5 mM EDTA, 0.5 mM EGTA, 1 mM DTT and 0.1% digitonine. The solutions were allowed to equilibrate for at least 2 h at room temperature. Footprinting reactions were initiated by the addition of 2 μl of a DNase stock solution (containing −100 pg DNase I in buffer) and allowed to proceed for 2 min at room temperature. The reactions were stopped by addition of 10 μl of a solution containing 1.25 M NaCl, 100 mM EDTA. Next, 5 μl of a 1% SDS solution was added, followed by 2 μl of a solution containing 1 μg poly(dA-dT), 1 μg salmon sperm DNA and 10 μg glycogen and the DNA was ethanol precipitated (20 min at −20° C.). The reactions were resuspended in 4 μl of 80% formamide loading buffer, denatured 10 min at 85° C., cooled on ice and electrophoresed on 8% polyacrylamide denaturing gels (5% cross-link, 8 M urea) at 30 W for 1 h. The gels were dried and exposed o/n at −70° C.
# [3] = test system: satellite III chromatin; test: Restriction enzyme (HaeIII) cleavage within satellite III chromatin; type: biochemical, Drosophila; conditions: data not shown
# From the text: Satellite III repeats contain near the topoisomerase II cleavage site a HaeIII restriction sequence. […] We made a similar observation using P9 (data not shown).
# [4] = test system: Drosophila satellite III chromatin (topoisomerase II cleavage); test: Topoisomerase II cleavage in satellite III of Kc nuclei in Xenopus egg extracts with VM26; type: biochemical; conditions: for concentration giving massive cleavage stimulation: P31 at 500 nM comparable to P9 at 62 nM (lowest tested)
# [5] = test system: W9 probe (isolated 9 bp AT-tract); test: DNase I footprinting on W9 probe; type: binding
# From the text: To target AT-tracts, the principal component of satellite I, III and SARs), a pyrrole pentamer was synthesized by facile solid phase chemistry in which five pyrrole (Py) aromatic amino acid rings are linked covalently by amide bonds (Baird and Dervan, 1996). The resulting compound, termed P7 had the sequence Py-Py-Py-Py-Py-β-Dp (where β=β-alanine and Dp=dimethylaminopropylamide). This compound is expected to bind 7 successive A or T base pairs (Ws) according to the n+1 rule where n is the number of amides (Youngquist and Dervan, 1985). The DNA binding properties of P7 were assessed by DNAse I footprinting experiments using a synthetic probe containing isolated, repeated AT-tracts of 9 Ws (W9, FIG. 2A). By visual inspection, the apparent dissociation constant (Kapp) for P7 was estimated to be approximately 80 nM (Table 3).
# were hybridized to obtain the W9 probe, oligomerized by ligation and digested with BamHl and BglII to obtain different tandem repeats. The following oligonucleotides were prepared identically:
# as §1, §2
# [6] = test system: GAGA factor (GAF) binding site from the Ubx promoter (GAF31 probe); test: DNase I footprinting on Ubx GAF binding site
# From the text: Panel A: DNAse I footprinting experiment with P31 and affinity cleavage with P31E are shown on GAF31 and the Brown I probes. The GAF31 and Brown I probes contains a (AAGAG)2 motif and GAGA factor (GAF) binding site from the Ubx promoter (Biggin et al., 1988). […] The Brown I oligo (a tandem repeat) includes an (AAGAG)5 binding site and a degenerate P31 binding site (AACAC)2 as indicated. P31 concentrations used (nM) are indicated. […] Binding orientations of P31E on these probes are indicated by arrowheads on the brackets pointing towards the N-terminus of the molecule. The letter G refers the G nucleotide cleavage reaction. Panel B: DNAse I footprinting experiment with purified GAGA factor (GAF) on the GAF31 probe. Note that GAF binds both the (AAGAG)2 motif and the binding site from the Ubx promoter.
# A footprint experiment was therefore carried out with this protein. The DNA probe (GAF31) used for this purpose contains besides the (AAGAG)2 motif (the target of P31) a typical promoter proximal GAF binding site derived from the Ubx gene (Biggin et al., 1988). This Ubx site contains the pentameric consensus sequence […] of GAF (Omichinski et al., 1997).
# (§3) All reactions were performed in a total volume of 40 μl. […]
# [7] = biological target: two GAGAA repeats (GAF31 probe); test: DNase I footprinting on GAGAA repeats; conditions: read-out: apparent binding constant
# From the text: In the framework of a search for molecular tools to study PEV, polyamide that targets the abundant satellite V composed of GAGAA repeats (Lohe et al., 1993) was synthesised. Designing molecules that would bind to this repeat motif represented a challenge since with current knowledge, targeting of sequences containing 5′-GNG-3′ or 5′-GA-3′ with drugs composed of pyrrole and imidazole is difficult. However, successful targeting to sequences containing 5′-GTG-3′ was previously achieved using an Im-β-Im motif where β-alanine replaces the function of pyrrole (Turner et al., 1998). Since β-alanine, like pyrroles, is degenerate for A.T and T.A base pairs, we designed a compound based on these observations, to recognize a sequence composed of two tandem GAGAA repeats by systematic placement of β-alanine at the N-terminal neighbor of imidazole. The binding affinity and specificity of this compound, termed P31 (=Im-β-Im-Py-β-Im-β-Im-β-Dp), were evaluated by DNAse I footprinting. For this purpose, two different probes were examined, both containing GAGAA repeats. […] The apparent binding constant of P31 for this sequence was estimated at 0.25 nM. At higher concentrations, protection of two mismatch binding sites was observed. One of these sites contains an AAGTG motif (FIG. 5A).
# GAF31 is composed of the oligonucleotides:
# as §3
# [8] = test system: CACAA repeats (Brown I probe); test: DNase I footprinting on CACAA repeats; type: binding
# From the text: A drawback of this binding model, as opposed to conventional 2:1 drug to DNA complexes, is that P31 is expected to bind degenerate GC and CG base pairs, albeit with different affinity. The consensus sequence can thus be defined as […], where S stands for a G or C and W for A or T. To evaluate binding of P31 to CACAA repeats, we used a second probe that contains two of these repeats as well as five tandem GAGAA repeats. […] Again, it is observed than this molecule binds as a 1:1 drug to DNA complex in an orientation as indicated by arrowheads (FIG. 5A). We propose that special structural features of AT-tracts and GAGAA repeats might favor 1:1 DNA to drug complexes (see Discussion).
# All reactions were performed in a total volume of 40 μl. A polyamide stock solution or buffer (for reference lanes) was added to an assay buffer containing 20 kcpm radiolabeled DNA, affording final concentrations of 10 mM Tris-HCl (pH 7.4), 10 mM KCl, 10 mM MgCl, 5 mM CaCl2, 0.5 mM EDTA, 0.5 mM EGTA, 1 mM DTT and 0.1% digitonine. The solutions were allowed to equilibrate for at least 2 h at room temperature. Footprinting reactions were initiated by the addition of 2 μl of a DNase stock solution (containing −100 pg DNase I in buffer) and allowed to proceed for 2 min at room temperature. The reactions were stopped by addition of 10 μl of a solution containing 1.25 M NaCl, 100 mM EDTA. […]
# [9] = test system: GAGA factor (GAF) function; test: Feeding to developing Drosophila melanogaster of brown-dominant genotype; type: in vivo; conditions: fed to developing flies
Compound,concentration inhibiting chromosome condensation (block at ruffle stage) ([1]; 120 min),"reversal of condensation inhibition by competitor oligonucleotide ([1]; P9 2 μM, 500 ng of SAR-, W9- or GAGAA-oligo)","Ratio (KappW9/KappSAR, SAR preference factor) [2]","Kd ([2]; apparent dissociation constant, SAR probe, read-out: Kdapp SAR)",SAR specificity factor after tagging with fluorescent label ([2]; value of the tagged derivative),restriction enzyme cleavage within satellite III [3],concentration of maximal stimulation of topoisomerase II cleavage [4],lower concentration for opening satellite III than P31 [4],stimulation of topoisomerase II cleavage in satellite III [4],concentration giving massive cleavage stimulation [4],better affinity for W9 than P7 [5],"Kd ([5]; apparent dissociation constant, W9 probe, read-out: Kdapp W9)",binding to Ubx GAF binding site [6],Kd [7],stimulation of topoisomerase II cleavage in satellite III ([4]; up to a concentration of 200 nM),affinity for CACAA repeats relative to GAGAA repeats [8],effect on GAGA factor function in flies [9]
"CN(C)CCCNC(=O)CCNC(=O)c1cc(NC(=O)c2cc(NC(=O)c3cc(NC(=O)CCNC(=O)c4cc(NC(=O)c5cc(NC(=O)c6cccn6C)cn5C)cn4C)cn3C)cn2C)cn1C [Compound P9, PyPyPy-β-PyPyPy-β-Dp]",2 µM,did not rescue chromatid assembly,1.4,550 pM,3,facilitated cleavage,500 nM and 500 to 1000 nM,roughly 10 fold,massively stimulated,62 nM,100 fold,~750 pM and 750 pM,–,–,–,–,–
"CN(C)CCCNC(=O)CCNC(=O)c1nc(NC(=O)CCNC(=O)c2nc(NC(=O)CCNC(=O)c3cc(NC(=O)c4nc(NC(=O)CCNC(=O)c5nccn5C)cn4C)cn3C)cn2C)cn1C [Compound P31, Im-β-Im-Py-β-Im-β-Im-β-Dp]",–,–,–,–,–,–,–,–,–,500 nM,–,–,does not bind,250 pM,no significant reinforcement of the pattern,approximately five fold lower affinity,interferes with the function of the GAGA factor (GAF)
